Measured values: patent US11491165B2 (Kinoxis Therapeutics Pty Ltd, priority 2016, dated 2022)

Tests used:
[1] = molecular target: T1, oxytocin receptor (OXTR), hOTR (Homo sapiens, UniProt P30559); assay: IP1 accumulation assay, OTR-expressing HEK-293 cells (agonist and antagonist assessment); type: cell-based; settings: for Emax: HEK293, read-out: OXTR Emax (% OXT); for EC50 (OXTR agonist potency, mean ± s.d.) / EC50: agonist assessment; for EC50 (OXTR agonist potency, mean ± s.d.) / IC50: IP1; for EC50: IP1, 1 h; for OV function: ratio of OXTR functional potency to V1aR functional potency, 'OT only' = function at OXTR only; for IC50: antagonist assessment vs OT 30 nM (~EC70)
T1 construct: expressed in transfected cells
T1 sequence (P30559 1-389): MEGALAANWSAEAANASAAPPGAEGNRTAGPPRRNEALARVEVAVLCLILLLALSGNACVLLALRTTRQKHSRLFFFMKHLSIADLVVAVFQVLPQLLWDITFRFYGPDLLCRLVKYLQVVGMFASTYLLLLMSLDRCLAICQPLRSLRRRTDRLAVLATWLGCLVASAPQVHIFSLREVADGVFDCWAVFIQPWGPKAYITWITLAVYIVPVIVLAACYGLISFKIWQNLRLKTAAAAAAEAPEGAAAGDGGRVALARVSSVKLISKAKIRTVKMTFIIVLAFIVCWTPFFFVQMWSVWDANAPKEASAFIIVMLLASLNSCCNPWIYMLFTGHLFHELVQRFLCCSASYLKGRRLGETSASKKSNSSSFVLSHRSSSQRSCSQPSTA
Method: (§1) Human embryonic kidney cells (HEK-293) transfected to stably express untagged hOTR and V1aR using the Flp-In™ T-REx™ system (Life Technologies, Carlsbad, Calif. USA) were established as reported in Jorgensen et al., 2016 (the entire disclosure of which is hereby incorporated by reference). Cells were subsequently maintained in 10% DMEM containing hygromycin (80 μg/ml), penicillin (100 U/ml), streptomycin (0.1 mg/ml) and blasticidine S hydrochloride (15 μg/ml).
(§2) OTR or V1aR-expressing HEK-293 cells were seeded onto poly-L-lysine (100 μg/ml)-coated 384-well plates at a density of 8.75×10^3 cells per well. Cells were incubated in tetracycline (2 μg/mL) for 48 h to induce receptor expression. Intracellular IP1 levels induced by activation of the Gq protein coupled to the OTR and V1aR was indexed using the HTRF IP-One kit (CisBio International, Bedford, Mass., USA), according to manufacturer's protocol. For agonist assessment, cells were incubated with logarithmically-spaced concentrations of compounds (1 nM-100 μM) for 1 h prior to the addition of Ab-Cryptate and IP1-d2 for 1 h. The contents of each well were transferred to a white-walled proxy plate (Perkin Elmer) and fluorescence read using a Pherastar Microplate reader (BMG Labtech, Cary, N.C., USA). For antagonist assessment, cells were incubated an ˜EC70 concentration of OT (30 nM) or AVP (25 nM) mixed with compounds (1 nM-100 μM) or vehicle control for 1 h. IP1 levels in the presence of compounds and OT or AVP were expressed as a percentage of levels seen with OT or AVP in the presence of vehicle control. Concentration response curves for OT and AVP were determined after 5 min incubation in drug or vehicle, and the data fitted using GraphPad PRISM to a 4-parameter logistic equation of the form y=Min+(Max−Min)/(1+10^((logEC50−X)*n)) where X is drug concentration and n is the H-ill slope. Data represent the mean±s.d. of at least 3 independent experiments, each in duplicate.

[2] = molecular target: T1, oxytocin receptor (OXTR), hOTR; assay: Competition radioligand binding, [3H]-oxytocin, OTR-expressing HEK293 membranes; settings: [3H]-oxytocin 10 nM, 90 min 4 °C
Method: as §1
(§3) To induce receptor expression, cells were incubated with tetracycline (2 μg/mL) for 48 h. PBS with 5 mM EDTA (pH 7.4) was used to detach OTR and V1aR-expressing HEK293 cells from culture flasks. Harvested cells were centrifuged at 1200 g for 5 min and were resuspended in homogenization buffer (50 mM HEPES, 5 mM EDTA, 5 mM MgCl2; pH 7.4) prior to homogenization using an Ultra-Turrax homogeniser (IKA, Wilmington, N.C., USA). Homogenates were centrifuged three times for 30 min at 48.000 g, 4° C. for 30 min and membrane pellets resuspended in 50 mM Tris HCl, 5 mM MgCl2 (pH 7.4). A bicinchoninic acid assay was used according to the manufacturer's protocol (Bio-Rad, Hercules. Calif., USA) to measure final protein concentration. Membranes were stored at −80° C. until use in competition radioligand binding studies.
(§4) Reactions were incubated for 90 min at 4° C. to reach equilibrium, and terminated by rapid filtration over glass fibre filters (Whatman GF/A […]; Millipore, Darmstadt, Germany), and washing with ice-cold reaction buffer. Filters were dried, then incubated with Microscint 0 (Perkin Elmer) for 30 min before radioactivity was detected with a Microbeta2 2450 microplate-reader (Perkin Elmer). […] Specific binding in the presence of compounds was expressed as a percentage of specific binding in the presence of vehicle control. A sum-of-squares F-test was used to compare the goodness of fit of one-site, two-site and sigmoidal with variable hill slope binding models, and to calculate Ki's using Graphpad Prism (Graphpad Software, La Jolla, Calif., USA).

[3] = molecular target: T2, vasopressin 1a receptor (V1aR) (Homo sapiens, UniProt P37288); assay: Competition radioligand binding, [3H]-vasopressin, V1aR-expressing HEK293 membranes; settings: [3H]-vasopressin 2 nM, 90 min 4 °C
T2 construct: expressed in transfected cells
T2 sequence (P37288 whole entry): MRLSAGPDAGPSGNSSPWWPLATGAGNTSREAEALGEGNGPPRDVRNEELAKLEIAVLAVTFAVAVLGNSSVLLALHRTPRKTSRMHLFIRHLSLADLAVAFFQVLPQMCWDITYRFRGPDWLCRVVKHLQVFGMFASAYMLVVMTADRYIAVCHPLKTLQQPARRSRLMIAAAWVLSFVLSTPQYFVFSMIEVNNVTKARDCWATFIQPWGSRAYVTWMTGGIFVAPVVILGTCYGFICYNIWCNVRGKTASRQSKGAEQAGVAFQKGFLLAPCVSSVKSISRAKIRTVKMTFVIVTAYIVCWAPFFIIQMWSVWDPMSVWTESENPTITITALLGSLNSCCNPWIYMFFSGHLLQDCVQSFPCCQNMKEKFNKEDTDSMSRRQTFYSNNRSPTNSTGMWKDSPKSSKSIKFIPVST
Method: as §1, §3, §4

[4] = molecular target: T2, vasopressin 1a receptor (V1aR); assay: IP1 accumulation assay, V1aR-expressing HEK-293 cells (agonist and antagonist assessment); type: cell-based; settings: for EC50: agonist assessment, IP1, 1 h; for IC50: antagonist assessment vs AVP 25 nM (~EC70), IP1
Method: Cells were subsequently maintained in 10% DMEM containing hygromycin (80 μg/ml), penicillin (100 U/ml), streptomycin (0.1 mg/ml) and blasticidine S hydrochloride (15 μg/ml).
as §2, with “Cells” for “OTR or V1aR-expressing HEK-293 cells were seeded onto poly-L-lysine (100 μg/ml)-coated 384-well plates at a density of 8.75×10^3 cells per well. Cells”, “For antagonist assessment, cells were incubated an ˜EC70 concentration of OT (30 nM) or AVP (25 nM) mixed with compounds (1 nM-100 μM) or vehicle control for 1 h.” left out

Structure (SMILES)	Emax [1] [%]	EC50 (OXTR agonist potency, mean ± s.d.) [1] [µM]	EC50 [1] [µM]	OV function [1]	Ki [2] [µM]	melting point	Ki [3] [µM]	EC50 [4] [µM]	IC50 [4] [µM]	IC50 [1] [µM]
Cc1ccc(C(=O)N2Cc3cnn(C)c3Nc3ccccc32)cc1 [WJ0653, (1-Methyl-4,10-dihydrobenzo[b]pyrazolo[3,4-e][1,4]diazepin-5 (1H)-yl)(p-tolyl)methanone]	9.54	0.2388 ± 0.0387	0.0853 ± 0.0265	0.12	0.149 ± 0.0434	265 °C (dec.)	0.0124 ± 0.0024	> 10	0.71 ± 0.267	–
COc1cc(CN2Cc3cnn(C)c3Nc3ccccc32)cc(OC)c1 [WJ0625, 5-(3,5-Dimethoxybenzyl)-1-methyl-1,4,5,10-tetrahydrobenzo[b]pyrazolo[3,4-e][1,4]diazepine]	–	–	> 10	–	> 10	210 to 212 °C	> 10	> 10	> 10	> 10
Cc1ccc(C(=O)N2Cc3cnn(C)c3Nc3ccccc32)cc1F [WJ0683, (3-Fluoro-4-methylphenyl)(1-methyl-4,10-dihydrobenzo[b]pyrazolo[3,4-e][1,4]diazepin-5 (1H)-yl)methanone]	11.3	0.2837 ± 0.0224	0.0962 ± 0.0229	0.085	0.103 ± 0.031	235 to 237 °C	0.0078 ± 0.0009	> 10	1.14 ± 0.165	–
Cn1ncc2c1Nc1ccccc1N(C(=O)c1cc(F)cc(F)c1)C2 [WJ0681, (3,5-Difluorophenyl)(1-methyl-4,10-dihydrobenzo[b]pyrazolo[3,4-e][1,4]diazepin-5 (1H)-yl)methanone]	10.9	0.2727 ± 0.0694	0.521 ± 0.0352	0.24	0.755 ± 0.164	290 to 292 °C (dec.)	0.0478 ± 0.0094	> 10	2.21 ± 0.406	–
Cn1ncc2c1Nc1ccccc1N(Cc1cc(O)cc(O)c1)C2 [WJ0627, 5-((1-Methyl-4,10-dihydrobenzo[b]pyrazolo[3,4-e][1,4]diazepin-5(1H)-yl)methyl)benzene-1,3-diol]	–	–	> 10	–	> 10	236 to 238 °C	> 10	> 10	> 10	> 10
Cn1ncc2c1Nc1ccccc1N(C(=O)C1CC1)C2 [CA3 (KA), cyclopropyl(1-methyl-4,10-dihydrobenzo[b]pyrazolo[3,4-e][1,4]diazepin-5 (1H)-yl)methanone]	–	–	> 10	–	> 10	207 to 209 °C	3.37 ± 0.74	> 10	> 10	> 10
Cn1ncc2c1Nc1ccccc1N(C(=O)C13CC4CC(CC(F)(C4)C1)C3)C2 [WJ0807mF, ((1r,3s,5R,7S)-3-Fluoroadamantan-1-yl)(1-methyl-4,10-dihydrobenzo[b]pyrazolo[3,4-e][1,4]diazepin-5 (1H)-yl)methanone]	25.3	0.6325 ± 0.148	2.4 ± 0.652	–	> 10	266 to 268 °C (dec.)	1.09 ± 0.0583	> 10	> 10	–
COc1ccc2c(c1)N(C(=O)c1ccccc1)Cc1cnn(C)c1N2 [WJ07117MeO, (7-Methoxy-1-methyl-4,10-dihydrobenzo[b]pyrazolo[3,4-e][1,4]diazepin-5 (1H)-yl)(phenyl)methanone]	–	–	> 10	–	> 10	248 to 250 °C	0.374	> 10	> 10	> 10
Cn1ncc2c1Nc1ccccc1N(C(=O)C1CCCC1)C2 [CAS (KA), cyclopentyl(1-methyl-4,10-dihydrobenzo[b]pyrazolo[3,4-e][1,4]diazepin-5 (1H)-yl)methanone]	10	–	3.39 ± 0.448	<0.33	> 10	> 300 °C	0.553 ± 0.067	> 10	> 10	–
Cn1ncc2c1Nc1ccccc1N(C(=O)c1ccc(OCc3ccccc3)cc1)C2 [BzE, (4-(benzyloxy)phenyl)(1-methyl-4,10-dihydrobenzo[b]pyrazolo[3,4-e][1,4]diazepin-5 (1H)-yl)methanone]	–	–	> 10	0.11	0.176 ± 0.041	207 to 209 °C	0.035 ± 0.005	> 10	1.59 ± 0.486	0.179
Cn1ncc2c1Nc1ccccc1N(C(=O)c1ccncc1)C2 [WJ0757, (1-Methyl-4,10-dihydrobenzo[b]pyrazolo[3,4-e][1,4]diazepin-5 (1H)-yl)(pyridin-4-yl)methanone]	–	–	> 10	–	> 10	267 to 269 °C (dec.)	0.751 ± 0.197	> 10	> 10	> 10
Cn1ncc2c1Nc1ccccc1N(S(=O)(=O)c1ccc(Cl)cc1)C2 [WJ0633, 5-((4-Chlorophenyl)sulfonyl)-1-methyl-1,4,5,10-tetrahydrobenzo[b]pyrazolo[3,4-e][1,4]diazepine]	–	–	> 10	–	> 10	206 to 208 °C	> 10	> 10	> 10	> 10
